The record followed here is patent publication US6858589B2, “Methods of and compositions for potentiating the action of agents active on cell wall sites of the susceptible bacteria” (priority 1996, dated 2005).

Experiment [1] deals with blood culture isolate of cMRSA. The experiment in a line: MIC and MBC for the cMRSA isolate. In kind it is cell-based, Staphylococcus aureus. The settings on record: mecA positive. Here is the method:
The student test was used for statistical analysis with a significant level of 0.05, it was performed using the Sigma Stat 32 program (SPSS Inc 1992-1997).

Experiment [2] concerns antibiotic resistant strain of Pseudomonas aeruoginosa isolated from a clinical patient. The experiment in a line: MIC, antibiotic resistant clinical Pseudomonas strain. In kind it is cell-based, Pseudomonas aeruginosa.
For experiment [3] the test system is unchanged. As to the kind of experiment: Tobramycin concentration-time profile kill study, resistant clinical strain. In kind it is cell-based, Pseudomonas aeruginosa. As to the method: The time boundaries for maintained exposures with aminoglycoside may be 1.0-16 hours, while the required maintained concentrations will be a function of the resistance of the organism as determined by the minimum inhibitory concentration (MIC) of the pathogen isolated in culture and time-concentration requirements of the organism(s) being treated.
(§1) The range of aminoglycoside antibiotics was extended to include tobramycin, the bacterial species type was extended from Enterobacteriaceae to Pseudomonacea, and the organism response range broadened to include an antibiotic resistant strain in Pseudomonas studies.
(§2) In contrast, the resistant clinical strain required a peak concentration of 18 mg/l combined with a maintained level of 1 mg/l.

The subject of experiment [4] is Pseudomonas aeruoginosa, ATCC27853. The experiment in a line: MIC, Pseudomonas reference strain. In kind it is cell-based, Pseudomonas aeruginosa.
The test system is the same in experiment [5]. As to the kind of experiment: Tobramycin concentration-time profile kill study, reference strain. In kind it is cell-based, Pseudomonas aeruginosa. The settings on record: 8 mg/l at 1 hour, reducing until 8.5 hr, then fixed 0.8 mg/l for 16 hours. Here is the method: as §1, §2
The test system of experiment [6] is blood culture isolate of cMRSA. As to the kind of experiment: Kill kinetics and regrowth patterns of cMRSA exposed to gentamicin profiles and constant beta-lactam. In kind it is cell-based, Staphylococcus aureus. Particulars: for Outcome of exposure: each agent alone. Here is the method: FIGS. 5a and 5b Kill kinetics and regrowth patterns of a clinical isolate of cMRSA.
The CMRSA isolate was cultured in the presence of gentamicin (Delta West, Bentleigh, Australia). An overnight culture of cMRSA in brain heart infusion broth (BHIB) (Oxoid, Bainstoke, England) was diluted to 10^7 CFU/ml in 0.1% peptone water (Oxoid, Bainstoke, England). A 1 ml sample of the 10^7 CFU/ml culture was added to the experimental culture broth, resulting in an initial density of 10^6 CFU/ml. In vitro concentration-time modeling of clinical plasma gentamicin concentration-time profiles assumed linear extrapolation of in vivo data as reported previously.^18 (Bastone et al Antimicrobial Agents and Chemotherapy 37(4): 914-917, 1993). […] Other profiles were constructed by linear extrapolation of these profiles and included 7 and 16 mg/l bolus and infusion profiles. Colony counts were performed at times 0, 0.5, 2.5, 4.5, 6.5, 8.5, 10.5, 24.5 and 48.5 hours for bolus profiles and times 0, 1, 3, 5, 7, 9, 11, 25 and 49 hours for infusion profiles.
In the experiments involving cephazolin the concentration was maintained at 4 mg/l in the BHIB for the entire 48.5 hours. For the experiments involving flucloxacillin the concentration of flucloxacillin was maintained at 2 mg/l for 48.5 hours. Colony counts were performed at times 0, 0,5, 2.5, 4.5, 6.5, 8.5, 10.5, 24.5 and 48.5 hours. […] These included cMRSA in a drug free broth, cMRSA exposed to a bolus profile of gentamicin with a target Cpeak 30 of 6 mg/l only, cMRSA exposed to […] of flucloxacillin only.
All experiments involved six replicates. Gentamicin concentrations were measured at times 0, 0.16, 0.33, 0.5, 2.5, 4.5, 6.5, 8.5, 10.5, 24.5 and 48.5 hours. Gentamicin assay concentrations were determined by fluorescence polarisation immunoassay (AxSYM, Abbot, Ill., U.S.A.) which has a threshold for detection of 0.3 mg/liter. […] (Gibaldi et al, pharmaceutics 2nd edn, 1982).
The blood culture cMRSA isolate was exposed to gentamicin in vitro simulating an in vivo bolus dosing regimen with varying 30 minute post dose concentrations of gentamicin. The same organism was then exposed to gentamicin in vitro simulating an in vivo bolus dosing regime with a 30 minute post dose concentration of 6 mg/l and constant concentration of 4 mg/l of cephazolin or 2 mg/l of flucloxacillin for 48 hours.

Experiment [7] concerns E. coli NCTC 10418. As to the kind of experiment: E. coli exposed to constant concentrations of cephazolin alone. In kind it is cell-based, Escherichia coli. The text has this:
In comparative experiments described in the examples herein, a reference strain of Escherichi coli (E. coli NCTC 10418) was exposed to constant concentrations of cephazolin in the culture medium (see FIGS. 1A and IIA). As these concentrations were varied, the growth of the bacterial culture was changed. […] As concentrations in the medium were increased, there was a major decline in numbers and a delay in regrowth.
The organisms in the media were able to maintain their numbers in a reduced state even in the continuing presence of cephazolin. This outcome is due to the exclusion of cephalosporins by porin channels in the outer cell wall and to the action of cephalosporinase which keeps cephazolin levels at the site(s) of action below that required for full bactericidal effect.
The cephalosporin effect reached a maximum when E. coli growth was reduced to 10 colony forming units(cfu)/ml (see FIG. IIB).

[8] abbreviates: 4 mg/l cephazolin alone throughout.

SMILES strings stand for the structures. Converted amounts (≈) assume the structure as drawn. Where two headings read alike, the source gives them in different places.

Usually MBC stands for the smallest concentration meeting the test's criterion for killing. What is called MIC is the least concentration at which growth counts as inhibited. `COc1cccc(OC)c1C(=O)N[C@@H]1C(=O)N2[C@@H]1SC(C)(C)[C@@H]2C(=O)O` [methicillin]: the MBC in experiment [1] (Staphylococcus aureus, read-out: MBC) is over 32 mg/L. The MIC in experiment [1] (Staphylococcus aureus, read-out: MIC) worked out at 32 mg/L (≈ 84.1 µM).

In the case of `NC[C@H]1O[C@H](O[C@H]2[C@H](O)[C@@H](O[C@H]3O[C@H](CO)[C@@H](O)[C@H](N)[C@H]3O)[C@H](N)C[C@@H]2N)[C@H](N)C[C@@H]1O` [tobramycin], the MIC is 2 to 4 mg/L (≈ 4.28 to 8.56 µM) in experiment [2] and 1 mg/L (≈ 2.14 µM) in experiment [4]. Moreover, the Maintained level required in experiment [3] (combined with 18 mg/l peak) came to 1 mg/L. In experiment [3] (combined with maintained level), the Peak concentration required stood at 18 mg/L. In addition, the “Outcome of tobramycin profile” value in experiment [5] was “complete kill”.

With `Cc1nnc(SCC2=C(C(=O)O)N3C(=O)[C@@H](NC(=O)Cn4cnnn4)[C@H]3SC2)s1` [cephazolin], the “Time at which early bactericidal effect was evident” value in experiment [6] (setting [8]) was at most 2.5 h. For the same compound, in experiment [6] (setting [8]), the “Time at which regrowth was evident” value stood at 24.5 h. Further, the Outcome of exposure result in experiment [6] was “complete kill or eradication was not achieved”; in experiment [7] (cephalosporin alone, constant concentrations) it was “not possible to produce a complete kill or eradication”. The minimum bactericidal concentration (MBC) in experiment [1] was 32 mg/L (≈ 70.4 µM). In addition, the MIC in experiment [1] stood at 32 mg/L (≈ 70.4 µM). Moreover, the “E. coli growth at maximum cephalosporin effect” value in experiment [7] (constant concentrations of cephalosporin alone, up to 250 mg/l) is listed as 10 cfu/ml. The “Growth of the culture” value in experiment [7] (lowest concentration of cephazolin, 1.0 mg/l) was “delayed in relation to control”. In addition, the “Bacterial Count” value in experiment [7] (maintained cephazolin 0.5 mg/L, 0 h) was found to be 5.88 ± 0.09 log 10 u/mL; in experiment [7] (maintained cephazolin 0.5 mg/L, 2 h), 7.43 ± 0.28 log 10 u/mL; in experiment [7] (maintained cephazolin 0.5 mg/L, 8 h), 8.67 ± 0.24 log 10 u/mL; in experiment [7] (maintained cephazolin 0.5 mg/L, 24 h), 8.82 ± 0.06 log 10 u/mL; in experiment [7] (maintained cephazolin 1.0 mg/L, 0 h), 5.83 ± 0.29 log 10 u/mL; in experiment [7] (maintained cephazolin 1.0 mg/L, 2 h), 6.21 ± 0.76 log 10 u/mL. For the same compound, the “Bacterial Count” value in experiment [7] (maintained cephazolin 1.0 mg/L, 8 h) was found to be 8.59 ± 0.35 log 10 u/mL; in experiment [7] (maintained cephazolin 1.0 mg/L, 24 h) it was 8.79 ± 0.05 log 10 u/mL; in experiment [7] (maintained cephazolin 2.0 mg/L, 0 h) it was 5.88 ± 0.07 log 10 u/mL; in experiment [7] (maintained cephazolin 2.0 mg/L, 2 h) it was 3.70 ± 0.32 log 10 u/mL; in experiment [7] (maintained cephazolin 2.0 mg/L, 8 h) it was 4.98 ± 0.34 log 10 u/mL; in experiment [7] (maintained cephazolin 2.0 mg/L, 24 h), 8.79 ± 0.05 log 10 u/mL. The “Bacterial Count” value in experiment [7] (maintained cephazolin 4.0 mg/L, 0 h) was 5.88 ± 0.06 log 10 u/mL; in experiment [7] (maintained cephazolin 4.0 mg/L, 2 h), 3.61 ± 0.22 log 10 u/mL; in experiment [7] (maintained cephazolin 4.0 mg/L, 8 h), 4.38 ± 0.42 log 10 u/mL; in experiment [7] (maintained cephazolin 4.0 mg/L, 24 h), 6.14 ± 0.93 log 10 u/mL; in experiment [7] (maintained cephazolin 12.5 mg/L, 0 h), 5.85 ± 0.14 log 10 u/mL; in experiment [7] (maintained cephazolin 12.5 mg/L, 2 h), 3.11 ± 0.26 log 10 u/mL. The “Bacterial Count” value in experiment [7] (maintained cephazolin 12.5 mg/L, 8 h) turned out to be 2.18 ± 0.63 log 10 u/mL; in experiment [7] (maintained cephazolin 12.5 mg/L, 24 h), 4.77 ± 1.89 log 10 u/mL; in experiment [7] (maintained cephazolin 50 mg/L, 0 h), 5.93 ± 0.11 log 10 u/mL; in experiment [7] (maintained cephazolin 50 mg/L, 2 h) it was 2.17 ± 0.39 log 10 u/mL; in experiment [7] (maintained cephazolin 50 mg/L, 8 h) it was 1.55 ± 0.93 log 10 u/mL; in experiment [7] (maintained cephazolin 50 mg/L, 24 h), 1.56 ± 1.14 log 10 u/mL. Further, the “Bacterial Count” value was found to be 5.82 ± 0.23 log 10 u/mL in experiment [7] (maintained cephazolin 75 mg/L, 0 h); 2.09 ± 0.29 log 10 u/mL in experiment [7] (maintained cephazolin 75 mg/L, 2 h); 1.11 ± 0.96 log 10 u/mL in experiment [7] (maintained cephazolin 75 mg/L, 8 h); 1.05 ± 1.23 log 10 u/mL in experiment [7] (maintained cephazolin 75 mg/L, 24 h); 5.85 ± 0.08 log 10 u/mL in experiment [7] (maintained cephazolin 100 mg/L, 0 h); 2.01 ± 0.26 log 10 u/mL in experiment [7] (maintained cephazolin 100 mg/L, 2 h). For the same compound, the “Bacterial Count” value in experiment [7] (maintained cephazolin 100 mg/L, 8 h) is reported as 0.86 ± 0.95 log 10 u/mL; in experiment [7] (maintained cephazolin 100 mg/L, 24 h), 0.70 ± 0.78 log 10 u/mL; in experiment [7] (maintained cephazolin 200 mg/L, 0 h), 5.86 ± 0.04 log 10 u/mL; in experiment [7] (maintained cephazolin 200 mg/L, 2 h), 2.16 ± 0.24 log 10 u/mL; in experiment [7] (maintained cephazolin 200 mg/L, 8 h), 0.78 ± 0.87 log 10 u/mL; in experiment [7] (maintained cephazolin 200 mg/L, 24 h), 1.43 ± 0.74 log 10 u/mL. The “Bacterial Count” value in experiment [7] (maintained cephazolin 250 mg/L, 0 h) worked out at 5.81 ± 0.03 log 10 u/mL; in experiment [7] (maintained cephazolin 250 mg/L, 2 h), 1.82 ± 0.44 log 10 u/mL; in experiment [7] (maintained cephazolin 250 mg/L, 8 h) it was 1.22 ± 0.96 log 10 u/mL; in experiment [7] (maintained cephazolin 250 mg/L, 24 h) it was 1.61 ± 0.86 log 10 u/mL.

For the compound `Cc1onc(-c2c(F)cccc2Cl)c1C(=O)N[C@@H]1C(=O)N2[C@@H]1SC(C)(C)[C@@H]2C(=O)O` [flucloxacillin], the Outcome of exposure result in experiment [6] is “complete kill or eradication was not achieved”.
